Values of other authors, collected in patent US7964610B2, “Buprenorphine derivatives and uses thereof” (Reckitt Benckiser Healthcare (UK) Limited, priority 2006, dated 2011).

## CO[C@]12CCC3(C[C@@H]1[C@](C)(O)C(C)(C)C)[C@H]1Cc4ccc(O)c5c4[C@@]3(CCN1CC1CC1)[C@H]2O5 [buprenorphine]
Oral (swallowed)
  bioavailability when taken orally: ~5%
sublingual
  bioavailability when absorbed sublingually: approximately fifty
